Patent US20240043427A1 (Gilead Sciences, Inc., priority 2020, published 2024)

Experiments:
CD73 [1] = biological target: T1, CD73 (Homo sapiens (Human), UniProt P21589); assay type: biochemical; details: 1 mM NaH2PO4 in enzyme buffer, CD73 0.3 nM, AMP 15 uM
CD73 [2] = biological target: T1, CD73; assay: MDA-MB-231 Cell Based CD73 Activity Assay (DMEM); details: MDA-MB-231-GFP cells, DMEM medium with 10% human plasma, 200 uM AMP
Experimental: MDA-MB-231 Cell Based CD73 Activity Assay (DMEM) MDA-MB-231-GFP cells were seeded in 384-well plates (Greiner 781946) at a density of 3000 cells per well in 50 μL of DMEM medium with 10% HP (human plasma). Cells were plated into assay plate with compounds pre-spotted, for an overnight compound treatment. 50 uL of 400 uM AMP (final concentration will be 200 uM) was added using Bio-tek dispenser. Plates were incubated for 100 mins. […] The samples were analyzed using Rapid fire.

T1 sequence (P21589 27-574): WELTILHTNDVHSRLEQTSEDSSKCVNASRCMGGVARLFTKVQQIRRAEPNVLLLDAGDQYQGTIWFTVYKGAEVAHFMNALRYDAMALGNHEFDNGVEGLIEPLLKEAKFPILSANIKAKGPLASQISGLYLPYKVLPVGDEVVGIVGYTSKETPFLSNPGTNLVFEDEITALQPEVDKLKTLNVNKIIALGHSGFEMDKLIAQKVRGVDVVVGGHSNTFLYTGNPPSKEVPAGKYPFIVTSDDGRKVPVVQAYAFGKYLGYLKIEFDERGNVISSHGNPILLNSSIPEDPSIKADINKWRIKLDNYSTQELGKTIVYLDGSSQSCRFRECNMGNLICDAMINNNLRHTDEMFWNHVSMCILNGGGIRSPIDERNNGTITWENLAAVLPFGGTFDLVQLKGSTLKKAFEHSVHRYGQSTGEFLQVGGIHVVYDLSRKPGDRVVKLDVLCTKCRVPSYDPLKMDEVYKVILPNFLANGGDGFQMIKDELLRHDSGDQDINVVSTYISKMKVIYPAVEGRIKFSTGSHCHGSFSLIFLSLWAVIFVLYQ

SMILES	IC50 (CD73 [1])	EC50 (CD73 [2])
O=c1[nH]cc(-c2cc([C@@H]3[C@@H](c4ccc(F)c(F)c4)C3(F)F)c3nccn3n2)c(=O)[nH]1 (racemic) [Example 552, 5-(8-((1S,3S)-3-(3,4-difluorophenyl)-2,2-difluorocyclopropyl)imidazo[1,2-b]pyridazin-6-yl)pyrimidine-2,4(1H,3H)-dione]	2.76 nM	15.2 nM
Cc1nc2ccc([C@H]3C[C@@H]3c3cc(-c4c[nH]c(=O)[nH]c4=O)nn4c(F)cnc34)cc2s1 (racemic) [Example 580, 5-(3-fluoro-8-((1S,2S)-2-(2-methylbenzo[d]thiazol-6-yl)cyclopropyl)imidazo[1,2-b]pyridazin-6-yl)pyrimidine-2,4(1H,3H)-dione]	1.63 nM	5.79 nM
O=c1[nH]cc(-c2cc([C@H]3C[C@@H]3c3ncc(C(F)(F)F)cc3F)c3nccn3n2)c(=O)[nH]1 (racemic) [Example 582, 5-(8-((1S,2S)-2-(3-fluoro-5-(trifluoromethyl)pyridin-2-yl)cyclopropyl)imidazo[1,2-b]pyridazin-6-yl)pyrimidine-2,4(1H,3H)-dione]	4.96 nM	15.6 nM
O=c1[nH]cc(-c2cc([C@H]3C[C@@H]3c3ncc(Cl)cc3F)c3ncc(F)n3n2)c(=O)[nH]1 (racemic) [Example 583, 5-(8-((1S,2S)-2-(5-chloro-3-fluoropyridin-2-yl)cyclopropyl)-3-fluoroimidazo[1,2-b]pyridazin-6-yl)pyrimidine-2,4(1H,3H)-dione]	2.63 nM	9.53 nM
O=c1[nH]cc(-c2cc([C@H]3C[C@@H]3c3ccc4nc(C(F)F)sc4c3)c3nccn3n2)c(=O)[nH]1 (racemic) [Example 589, 5-(8-((1S,2S)-2-(2-(difluoromethyl)benzo[d]thiazol-6-yl)cyclopropyl)imidazo[1,2-b]pyridazin-6-yl)pyrimidine-2,4(1H,3H)-dione]	0.63 nM	2.56 nM
O=c1[nH]cc(-c2cc([C@H]3C[C@@H]3c3cc(OCC4CC4(F)F)c(Cl)cn3)c3nccn3n2)c(=O)[nH]1 (mixture of isomers) [Example 597, 5-(8-((1S,2S)-2-(5-chloro-4-((2,2-difluorocyclopropyl)methoxy)pyridin-2-yl)cyclopropyl)imidazo[1,2-b]pyridazin-6-yl)pyrimidine-2,4(1H,3H)-dione]	2.79 nM	5.93 nM
O=c1[nH]cc(-c2cc([C@H]3C[C@@H]3c3ccc4ccc(=O)n(CC(F)(F)F)c4c3)c3nccn3n2)c(=O)[nH]1 (racemic) [Example 598, 5-(8-((1S,2S)-2-(2-oxo-1-(2,2,2-trifluoroethyl)-1,2-dihydroquinolin-7-yl)cyclopropyl)imidazo[1,2-b]pyridazin-6-yl)pyrimidine-2,4(1H,3H)-dione]	1.11 nM	0.11 nM
O=c1[nH]cc(-c2cc([C@H]3C[C@@H]3c3ccc4ccc(OCC(F)(F)F)nc4c3)c3nccn3n2)c(=O)[nH]1 (racemic) [Example 599, 5-(8-((1S,2S)-2-(2-(2,2,2-trifluoroethoxy)quinolin-7-yl)cyclopropyl)imidazo[1,2-b]pyridazin-6-yl)pyrimidine-2,4(1H,3H)-dione]	2.38 nM	41.2 nM
O=c1[nH]cc(-c2cc([C@H]3C[C@@H]3c3ccc4cnn(CC(F)(F)F)c4n3)c3nccn3n2)c(=O)[nH]1 (racemic) [Example 601, 5-(8-((1S,2S)-2-(1-(2,2,2-trifluoroethyl)-1H-pyrazolo[3,4-b]pyridin-6-yl)cyclopropyl)imidazo[1,2-b]pyridazin-6-yl)pyrimidine-2,4(1H,3H)-dione]	1.16 nM	0.17 nM
O=c1[nH]cc(-c2cc([C@H]3C[C@@H]3c3ccc4cnc(CC(F)(F)F)n4c3)c3nccn3n2)c(=O)[nH]1 (racemic) [Example 605, 5-(8-((1S,2S)-2-(3-(2,2,2-trifluoroethyl)imidazo[1,5-a]pyridin-6-yl)cyclopropyl)imidazo[1,2-b]pyridazin-6-yl)pyrimidine-2,4(1H,3H)-dione]	1.26 nM	0.12 nM
O=c1[nH]cc(-c2cc([C@H]3C[C@@H]3c3cc4c(cn3)c(C(F)(F)F)nn4CC(F)(F)F)c3nccn3n2)c(=O)[nH]1 (racemic) [Example 608, 5-(8-((1S,2S)-2-(1-(2,2,2-trifluoroethyl)-3-(trifluoromethyl)-1H-pyrazolo[4,3-c]pyridin-6-yl)cyclopropyl)imidazo[1,2-b]pyridazin-6-yl)pyrimidine-2,4(1H,3H)-dione]	2.36 nM	0.48 nM

The remaining compounds from weak to strong by IC50 (CD73 [1]), led by results:

IC50 (CD73 [1])	EC50 (CD73 [2])	SMILES
13.3 nM	267 nM	O=c1[nH]cc(-c2cc([C@H]3C[C@@H]3c3ccccc3Cl)c3nccn3n2)c(=O)[nH]1 (racemic) [Example 555, 5-(8-((1S,2S)-2-(2-chlorophenyl)cyclopropyl)imidazo[1,2-b]pyridazin-6-yl)pyrimidine-2,4(1H,3H)-dione]
3.41 nM	14 nM	O=c1[nH]cc(-c2cc([C@H]3C[C@@H]3c3ccc(OC(F)F)cc3)c3nccn3n2)c(=O)[nH]1 (racemic) [Example 556, 5-(8-((1S,2S)-2-(4-(difluoromethoxy)phenyl)cyclopropyl)imidazo[1,2-b]pyridazin-6-yl)pyrimidine-2,4(1H,3H)-dione]
2.84 nM	8.1 nM	O=c1[nH]cc(-c2cc([C@H]3C[C@@H]3c3ccc(Cl)nc3)c3nccn3n2)c(=O)[nH]1 (racemic) [Example 568, 5-(8-((1S,2S)-2-(6-chloropyridin-3-yl)cyclopropyl)imidazo[1,2-b]pyridazin-6-yl)pyrimidine-2,4(1H,3H)-dione]
2.59 nM	6.64 nM	O=c1[nH]cc(-c2cc([C@H]3C[C@@H]3c3cc(OCC(F)(F)F)c(Cl)cn3)c3nccn3n2)c(=O)[nH]1 (racemic) [Example 600, 5-(8-((1S,2S)-2-(5-chloro-4-(2,2,2-trifluoroethoxy)pyridin-2-yl)cyclopropyl)imidazo[1,2-b]pyridazin-6-yl)pyrimidine-2,4(1H,3H)-dione]
2.53 nM	31.3 nM	O=c1[nH]cc(-c2cc([C@H]3C[C@@H]3c3ccc(OCC(F)(F)F)cc3)c3nccn3n2)c(=O)[nH]1 (racemic) [Example 564, 5-(8-((1S,2S)-2-(4-(2,2,2-trifluoroethoxy)phenyl)cyclopropyl)imidazo[1,2-b]pyridazin-6-yl)pyrimidine-2,4(1H,3H)-dione]
2.05 nM	6.9 nM	O=c1[nH]cc(-c2cc([C@H]3C[C@@H]3c3ccc(Cl)cn3)c3nccn3n2)c(=O)[nH]1 (racemic) [Example 576, 5-(8-((1S,2S)-2-(5-chloropyridin-2-yl)cyclopropyl)imidazo[1,2-b]pyridazin-6-yl)pyrimidine-2,4(1H,3H)-dione]
1.94 nM	0.09 nM	O=c1[nH]cc(-c2cc([C@H]3C[C@@H]3c3ccc4nc(C(F)(F)F)n(CC(F)(F)F)c4c3)c3nccn3n2)c(=O)[nH]1 (racemic) [Example 603, 5-(8-((1S,2S)-2-(1-(2,2,2-trifluoroethyl)-2-(trifluoromethyl)-1H-benzo[d]imidazol-6-yl)cyclopropyl)imidazo[1,2-b]pyridazin-6-yl)pyrimidine-2,4(1H,3H)-dione]
0.93 nM	0.53 nM	O=c1[nH]cc(-c2cc([C@H]3C[C@@H]3c3ccc4cnn(CC(F)(F)F)c4n3)c3ncc(F)n3n2)c(=O)[nH]1 (racemic) [Example 602, 5-(3-fluoro-8-((1S,2S)-2-(1-(2,2,2-trifluoroethyl)-1H-pyrazolo[3,4-b]pyridin-6-yl)cyclopropyl)imidazo[1,2-b]pyridazin-6-yl)pyrimidine-2,4(1H,3H)-dione]
0.89 nM	2.16 nM	O=c1[nH]cc(-c2cc([C@H]3C[C@@H]3c3ccc4ncsc4c3)c3ncc(F)n3n2)c(=O)[nH]1 (racemic) [Example 581, 5-(8-((1S,2S)-2-(benzo[d]thiazol-6-yl)cyclopropyl)-3-fluoroimidazo[1,2-b]pyridazin-6-yl)pyrimidine-2,4(1H,3H)-dione]
0.83 nM	0.12 nM	O=c1[nH]cc(-c2cc([C@H]3C[C@@H]3c3cc4c(cn3)cnn4CC(F)(F)F)c3ncc(F)n3n2)c(=O)[nH]1 (racemic) [Example 604, 5-(3-fluoro-8-((1S,2S)-2-(1-(2,2,2-trifluoroethyl)-1H-pyrazolo[4,3-c]pyridin-6-yl)cyclopropyl)imidazo[1,2-b]pyridazin-6-yl)pyrimidine-2,4(1H,3H)-dione]
0.8 nM	0.84 nM	Cc1nc2ccc([C@H]3C[C@@H]3c3cc(-c4c[nH]c(=O)[nH]c4=O)nn4ccnc34)cc2s1 (racemic) [Example 570, 5-(8-((1S,2S)-2-(2-methylbenzo[d]thiazol-6-yl)cyclopropyl)imidazo[1,2-b]pyridazin-6-yl)pyrimidine-2,4(1H,3H)-dione]
0.73 nM	17.3 nM	O=c1[nH]cc(-c2cc([C@H]3C[C@@H]3c3ccc(OCC(F)F)cc3)c3nccn3n2)c(=O)[nH]1 (racemic) [Example 574, 5-(8-((1S,2S)-2-(4-(2,2-difluoroethoxy)phenyl)cyclopropyl)imidazo[1,2-b]pyridazin-6-yl)pyrimidine-2,4(1H,3H)-dione]
0.72 nM	0.17 nM	O=c1[nH]cc(-c2cc([C@H]3C[C@@H]3c3cc4c(cn3)cnn4CC(F)(F)F)c3nccn3n2)c(=O)[nH]1 (racemic) [Example 591, 5-(8-((1S,2S)-2-(1-(2,2,2-trifluoroethyl)-1H-pyrazolo[4,3-c]pyridin-6-yl)cyclopropyl)imidazo[1,2-b]pyridazin-6-yl)pyrimidine-2,4(1H,3H)-dione]
